Data as given in patent USRE47689E1, “Compounds for treating spinal muscular atrophy” (PTC Therapeutics, Inc., priority 2011, dated 2019).
Where two headings read alike, the source gives them in different places.

Legend:
[1] = tested on: SMN2 minigene (full length SMN2 minigene mRNA containing SMN2 exon 7); assay: SMN2 minigene mRNA splicing RT-qPCR assay in cultured cells; assay type: cell-based, human; settings: Homo sapiens, HEK293-H, read-out: EC1.5x for production of full length SMN2 mRNA
In short: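 Full-length SMN2 minigene mRNA (exon 7 included), minigene-specific and not endogenous SMN, quantified by RT-qPCR multiplexed with GAPDH in stably transfected HEK293H cells after 24 h compound exposure at 37° C. Abundance from efficiency-corrected Ct, normalized to GAPDH and vehicle; EC1.5x reported as star bins.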

Smn protein = Smn protein assay in cultured cells (SMN HTRF); assay type: cell-based, human; settings: 48 hours; for maximum fold (Fold) increase of Smn protein: SMA patient fibroblast cells, 7-point concentration data, fold increase relative to vehicle control (SMN HTRF); for EC1.5x (concentration giving 1.5-fold Smn protein increase): SMA Type 1 patient fibroblast cells (GM03813), 7-point concentration curve, SMN HTRF, concentration producing 1.5 times Smn protein vs DMSO vehicle control, read-out: EC1.5x for Smn protein expression
In short: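 Smn in SMA fibroblast lysates, measured by anti-SMN HTRF after 48 h compound exposure; EC1.5x from fold change over vehicle.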

[2] = HEK293H cells stably transfected with SMN2-A minigene, 24 hours, 7-point concentration curve, 1.5-fold relative to vehicle-treated cells

Row | Compound | EC (1.5-fold) ([1]; 24 h) | maximum fold (Fold) increase of Smn protein (Smn protein) | melting point | EC (1.5-fold) [1, 2] | EC1.5x (concentration giving 1.5-fold Smn protein increase) (Smn protein)
1 | O=c1oc2cc(N3CCNCC3)ccc2cc1-c1ccncc1 [Compound 27, 7-(piperazin-1-yl)-3-(pyridin-4-yl)-2H-chromen-2-one] | 1 to 3 µM | * (maximum fold increase of ≤1.2) | 212 to 214 °C |  | 
2 | O=c1oc2cc(N3CCCNCC3)ccc2cc1-c1cn2cccc(Cl)c2n1 [Compound 212, 3-(8-chloroimidazo[1,2-a]pyridin-2-yl)-7-(1,4-diazepan-1-yl)-2H-chromen-2-one] |  | **** (fold increase between >1.5 and ≤1.65) | 170 to 173 °C | 0.3 to 1 µM | 300 to 1000 nM
3 | Cc1cccn2cc(-c3cc4ccc(N5CCCNCC5)cc4oc3=O)nc12 [Compound 281, 7-(1,4-diazepan-1-yl)-3-(8-methylimidazo[1,2-a]pyridin-2-yl)-2H-chromen-2-one] |  | ** (fold increase between >1.2 and ≤1.35) | 138 to 140 °C | 0.3 to 1 µM | 
4 | C[C@@H]1CN(c2ccc3cc(-c4cn5ccsc5n4)c(=O)oc3c2)CCN1 [Compound 204, 3-(imidazo[2,1-b][1,3]thiazol-6-yl)-7-[(3R)-3-methylpiperazin-1-yl]-2H-chromen-2-one] |  | *** (fold increase between >1.35 and ≤1.5) | 233 to 237 °C | 0.1 to 0.3 µM | 
5 | Cc1cn2cc(-c3cc4ccc(OCCN[C@@H](C)CO)cc4oc3=O)nc2c(C)n1 [Compound 947, 3-(6,8-dimethylimidazo[1,2-a]pyrazin-2-yl)-7-(2-{[(2S)-1-hydroxypropan-2-yl]amino}ethoxy)-2H-chromen-2-one] |  | **** (fold increase between >1.5 and ≤1.65) | 186 to 188 °C | < 0.1 µM | < 300 nM
6 | CCN(CC)CCc1ccc2cc(-c3cn4cc(C)nc(C)c4n3)c(=O)oc2c1 [Compound 968, 7-[2-(diethylamino)ethyl]-3-(6,8-dimethylimidazo[1,2-a]pyrazin-2-yl)-2H-chromen-2-one] |  | ***** (fold increase >1.65) | 190 to 193 °C | < 0.1 µM | < 300 nM
7 | C[C@@H]1CN(c2ccc3cc(-c4cc5ccccc5s4)c(=O)oc3c2)C[C@H](C)N1 [Compound 408, 3-(1-benzothiophen-2-yl)-7-[(3R,5S)-3,5-dimethylpiperazin-1-yl]-2H-chromen-2-one] |  | * (maximum fold increase of ≤1.2) | 271 to 273 °C | 0.3 to 1 µM | 
8 | Cc1cn2cc(-c3cc4ccc(N5CC[C@H](CN)C5)cc4oc3=O)nc2c(C)n1 [Compound 950, 7-[(3R)-3-(aminomethyl)pyrrolidin-1-yl]-3-(6,8-dimethylimidazo[1,2-a]pyrazin-2-yl)-2H-chromen-2-one] |  | *** (fold increase between >1.35 and ≤1.5) | 196 to 198 °C | 0.1 to 0.3 µM | 1000 to 3000 nM
9 | Cc1cn2cc(-c3cc4ccc(N5CCC(N(C)C)CC5)cc4oc3=O)cc2cn1 [Compound 716, 7-[4-(dimethylamino)piperidin-1-yl]-3-(3-methylpyrrolo[1,2-a]pyrazin-7-yl)-2H-chromen-2-one] |  | **** (fold increase between >1.5 and ≤1.65) | 224 to 227 °C | < 0.1 µM | 1000 to 3000 nM
10 | Cc1cnc2nc(-c3cc4ccc(N5CCN[C@H](C)C5)cc4oc3=O)cn2c1 [Compound 463, 3-(6-methylimidazo[1,2-a]pyrimidin-2-yl)-7-[(3R)-3-methylpiperazin-1-yl]-2H-chromen-2-one] |  | * (maximum fold increase of ≤1.2) | 258 to 261 °C | 0.1 to 0.3 µM | 
11 | O=c1oc2cc(N3CCNCC3)ccc2cc1-c1cn2cccc(F)c2n1 [Compound 149, 3-(8-fluoroimidazo[1,2-a]pyridin-2-yl)-7-(piperazin-1-yl)-2H-chromen-2-one] |  | *** (fold increase between >1.35 and ≤1.5) | 236 to 238 °C | 1 to 3 µM | 
12 | Cc1cc2cc(-c3cc4ccc(N5CCCN(C)CC5)cc4oc3=O)oc2c(C)n1 [Compound 775, 3-(5,7-dimethylfuro[2,3-c]pyridin-2-yl)-7-(4-methyl-1,4-diazepan-1-yl)-2H-chromen-2-one] |  | **** (fold increase between >1.5 and ≤1.65) | 243 to 245 °C | < 0.1 µM | < 300 nM
13 | COc1ccc(-c2cc3c(F)cc(N4CCN[C@@H](C)C4)cc3oc2=O)cc1OC [Compound 464, 3-(3,4-dimethoxyphenyl)-5-fluoro-7-[(3S)-3-methylpiperazin-1-yl]-2H-chromen-2-one] |  | *** (fold increase between >1.35 and ≤1.5) | 118 to 120 °C | 0.1 to 0.3 µM | 
14 | Cc1cnc2nc(-c3cc4ccc(N5CCCNCC5)cc4oc3=O)cn2c1 [Compound 378, 7-(1,4-diazepan-1-yl)-3-(6-methylimidazo[1,2-a]pyrimidin-2-yl)-2H-chromen-2-one] |  | ** (fold increase between >1.2 and ≤1.35) | 275 to 278 °C | 0.1 to 0.3 µM | 
15 | Cc1cn2cc(-c3cc4c(F)cc(N5CCCN(C)CC5)cc4oc3=O)nc2cn1 [Compound 591, 5-fluoro-7-(4-methyl-1,4-diazepan-1-yl)-3-(6-methylimidazo[1,2-a]pyrazin-2-yl)-2H-chromen-2-one] |  | ***** (fold increase >1.65) | 210 to 212 °C | < 0.1 µM | < 300 nM
16 | Cc1cn2cc(-c3cc4ccc(CCCN(C)C)cc4oc3=O)nc2c(C)n1 [Compound 857, 7-[3-(dimethylamino)propyl]-3-(6,8-dimethylimidazo[1,2-a]pyrazin-2-yl)-2H-chromen-2-one] |  | ***** (fold increase >1.65) | 194 to 196 °C | < 0.1 µM | < 300 nM
17 | C[C@@H]1CN(c2ccc3cc(-c4cn5ccccc5n4)c(=O)oc3c2)C[C@H](C)N1 [Compound 139, 7-[(3R,5S)-3,5-dimethylpiperazin-1-yl]-3-(imidazo[1,2-a]pyridin-2-yl)-2H-chromen-2-one] |  | *** (fold increase between >1.35 and ≤1.5) | 261 °C (dec.) | 1 to 3 µM | 
18 | C[C@H]1CN(c2ccc3cc(-c4cn5cc(Cl)cnc5n4)c(=O)oc3c2)CCN1 [Compound 376, 3-(6-chloroimidazo[1,2-a]pyrimidin-2-yl)-7-[(3S)-3-methylpiperazin-1-yl]-2H-chromen-2-one] |  | * (maximum fold increase of ≤1.2) | 260 to 262 °C | 1 to 3 µM | 
19 | Cc1cn2cc(-c3cc4ccc(CCCNC(C)C)cc4oc3=O)nc2c(C)n1 [Compound 858, 3-(6,8-dimethylimidazo[1,2-a]pyrazin-2-yl)-7-[3-(propan-2-ylamino)propyl]-2H-chromen-2-one] |  | **** (fold increase between >1.5 and ≤1.65) | 184 to 187 °C | < 0.1 µM | < 300 nM
20 | Cc1ccc2oc(-c3cc4ccc(N5CCN(C)CC5)cc4oc3=O)cc2n1 [Cpd 698, 3-(5-methylfuro[3,2-b]pyridin-2-yl)-7-(4-methylpiperazin-1-yl)-2H-chromen-2-one] |  | * (maximum fold increase of ≤1.2) | 178 to 180 °C | 1 to 3 µM | 
21 | CN1CCN(c2ccc3cc(-c4cn5cccc(C(F)(F)F)c5n4)c(=O)oc3c2)CC1 [Compound 210, 7-(4-methylpiperazin-1-yl)-3-[8-(trifluoromethyl)imidazo[1,2-a]pyridin-2-yl]-2H-chromen-2-one] |  | * (maximum fold increase of ≤1.2) | 235 to 237 °C | 0.3 to 1 µM | 
22 | Cc1cn2cc(-c3cc4ccc(N5CC[C@@H](CN(C)C)C5)cc4oc3=O)nc2c(C)n1 [Compound 967, 7-{(3S)-3-[(dimethylamino)methyl]pyrrolidin-1-yl}-3-(6,8-dimethylimidazo[1,2-a]pyrazin-2-yl)-2H-chromen-2-one] |  | **** (fold increase between >1.5 and ≤1.65) | 198 to 200 °C | < 0.1 µM | < 300 nM
23 | CN(C)[C@H]1[C@@H]2CN(c3ccc4cc(-c5cn6ccsc6n5)c(=O)oc4c3)C[C@@H]21 [Compound 437, 7-[(1R,5S,6s)-6-(dimethylamino)-3-azabicyclo[3.1.0]hex-3-yl]-3-(imidazo[2,1-b][1,3]thiazol-6-yl)-2H-chromen-2-one] |  | ** (fold increase between >1.2 and ≤1.35) | 233 to 235 °C | 1 to 3 µM | 
